Results taken from US20260364214A1, “MULTIVALENT FIBROBLAST ACTIVATION PROTEIN LIGANDS FOR TARGETED DELIVERY APPLICATIONS” (Philochem AG, priority 2022, published 2026).

Assays:
[1] = test system: SK-RC-52.hFAP tumors; experiment: Therapeutic efficacy in dose escalation and in combination with L19-IL2; assay type: in vivo, mouse (athymic Balb/c AnNRj-Foxn1); settings: 5, 15 or 30 MBq/mouse on day 7
Experimental: Prior to the therapy studies, precursors (25 nmol) were dissolved in 25 μL of milliQ water, then sodium acetate buffer (75 μL, 1 M in water) and 25, 75 or 150 MBq of ^177Lu solution were added. The mixture was heated at 90 °C for 1 minutes followed by dilution with 400 μL of PBS to afford a final volume of 500 μL (5 doses of 100 μL each). Quality control of radiosynthesis was performed using radio-HPLC.
The anti-cancer efficacy of L19-IL2 as single agent (3×0.05 mg/mouse), ^177Lu-Tri-ESV6 as single agent at different doses (5 MBq/mouse, 15 MBq/mouse, 30 MBq/mouse), ^177Lu-Tri-ESV6+L19-IL2 combination (5 MBq/mouse of ^177Lu-Tri-ESV6 followed by three injections of L19-IL2 at 0.05 mg/mouse) or saline was assessed in athymic Balb/c AnNRj-Foxn1 mice bearing SK-RC-52.hFAP tumor in the right flank. Therapy experiments started when the average volume of established tumors had reached 100-150 mm^3. Body weight of the animals and tumor volume were daily measured and recorded. Tumor dimensions were measured with an electronic caliper and tumor volume was calculated with the formula (long side, mm)×(short side, mm)×(short side, mm)×0.5. Animals were euthanized when one or more termination criterium indicated by the experimental license was reached. Prism 7 software (GraphPad Software) was used for data analysis. […]

[2] = test system: SK-RC-52.hFAP tumors; experiment: Therapeutic efficacy, schedule optimization for combination with L19-IL2; assay type: in vivo, mouse (athymic Balb/c AnNRj-Foxn1); settings: 5 MBq/mouse on day 7
Experimental: The anti-cancer efficacy was assessed in athymic Balb/c AnNRj-Foxn1 mice bearing SK-RC-52.hFAP tumor in the right flank. Therapy experiments started when the average volume of established tumors had reached 100-150 mm^3. Body weight of the animals and tumor volume were daily measured and recorded. Tumor dimensions were measured with an electronic caliper and tumor volume was calculated with the formula (long side, mm)×(short side, mm)×(short side, mm)×0.5. Animals were euthanized when one or more termination criterium indicated by the experimental license was reached. Prism 7 software (GraphPad Software) was used for data analysis. Different groups were treated with (i) L19-IL2 as single agent at a dose of 0.05 mg/mouse on day 8,10 and 12, (ii) ^177Lu-Tri-ESV6 as single agent at a dose of 5 MBq/mouse on day 7 (iii) ^177Lu-Tri-ESV6+L19-IL2 combination (^177Lu-Tri-ESV6 at a dose of 5 MBq/mouse on day 7 followed by three administrations of L19-IL2 at a dose 0.05 mg/mouse on day 8, 10 and 12—SCHEDULE 1—, or by three administrations of L19-IL2 at a dose 0.05 mg/mouse on day 12, 17 and 22—SCHEDULE 2—, or by a single administration of L19-IL2 at a dose 0.05 mg/mouse on day 8—SCHEDULE 3—, or by a single administration of L19-IL2 at a dose 0.05 mg/mouse on day 12—SCHEDULE 4—or (iv) saline […].

N#CC1CC(F)(F)CN1C(=O)CNC(=O)c1ccnc2c(NC(=O)CCC(=O)NCCNC(=O)CCOCC(COCCC(=O)NCCNC(=O)CCC(=O)Nc3cccc4c(C(=O)NCC(=O)N5CC(F)(F)CC5C#N)ccnc34)(COCCC(=O)NCCNC(=O)CCC(=O)Nc3cccc4c(C(=O)NCC(=O)N5CC(F)(F)CC5C#N)ccnc34)NC(=O)CCC(C(=O)O)N3CCN(CC(=O)[O-])CCN(CC(=O)[O-])CCN(CC(=O)[O-])CC3)cccc12.[177Lu+3] (centres unmarked) [^177Lu-Tri-ESV6-DOTAGA]
therapeutic activity, in words [1]: dose-dependent therapeutic activity
therapeutic activity, in words [2]: dose-dependent therapeutic activity
